Laboratory results from patent publication US20060127400A1, “Activation of regulatory T cells by alpha-melanocyte stimulating hormone” (THE SCHEPENS EYE RESEARCH INSTITUTE, INC., priority 1999, published 2006).
Entries after “also recorded” stand apart in the source; their conditions may differ. No end group written: not given here.

Tested on: primed T cells
Assay: total TGF-β production by TCR-stimulated primed T cells, Mv1Lu (CCL-64) bioassay
Format: cell-based, mouse (BALB/c)
Conditions: 48 h
Description: TGF-β bioassay. To measure total TGF-β, 100 μl of conditioned media was pretreated according to standard procedures (24) with 10 μl 1N HCL to lower the media pH to 2 and incubated for 1 hour at 4° C. The acid was neutralized with 20 μl of a 1:1 mixture of 1N NaOH: 1M HEPES returning the culture supernatant to a pH 7.3. The transiently acidified conditioned media was then used in the Mv1Lu assay; diluted 1:4 in EMEM+0.5% FBS. To the wells of a Falcon 96-well flat-bottom plate, 100 μl of diluted transiently acidified samples were added with 100 μl of 1×10^5 Mv1Lu cells (CCL-64; ATCC, Rockville, Md.). The plate was incubated for 20 hours at 37° C., 5% CO2 followed by the addition of 20 μl of 50 μCi/ml 3H-thymidine and the plate was incubated for an additional 4 hours. Supernatant was discarded and 50 μl of 10× Trypsin-EDTA (Biowhittaker, Walkersville, Md.) solution was added to each well and the plate was incubated for 15 minute at 37° C. The cells were collected onto filter paper using a Tomtec Plate Harvester 96 and counts per minute (CPM) of incorporation 3H-thymidine was measured using a Wallac 1205 Betaplate Liquid Scintillation Counter. Cultures of known amounts of purified activated TGF-β1, 20 ng/ml to 0.2 pg/ml (R&:D Systems), were prepared in the same plate for calculating a standard curve to quantify the concentration of total TGF-β in the samples.
Primed T Cell In Vitro Assays. From draining lymph nodes of BALB/c mice immunized 7 days previously with MT-Ag, primed T cells were isolated using CD3 enrichment columns (R&D Systems). T-cells (4×10^5 cells) suspended in serum-free media were added to the wells of a 96 well, round bottom plate (Corning). To the wells were added α-MSH (30 pg/ml) and anti-TCR antibody (2C11; 1 μg/ml) diluted in serum-free culture media. Various concentrations of TGF-β1 or TGF-β2 in media were added. In a second set of experiments TGF-β1 or TGF-β2 at a fixed concentration of 5 ng/ml were added to the wells at various times (0, 2, 4 and 6 hours) after addition of anti-TCR antibody. The cultures were incubated for 24 hours and 0.5 μCi of 3H-thymidine (NEM, Boston, Mass.) was added to the wells and the cultures were incubated for an additional 24 hours. The cells were collected and incorporated radiolabeled was measured by scintillation counting. Production of TGF-β by the treated primed T cells was done by centrifuging the culture plates 24 hours after the addition of anti-TCR antibody, removing the supernatant, washing the cultures once and adding fresh media. […]
FIG. 4 is a bar graph of TGF-β production by primed T cells TCR-stimulated in the presence of α-MSH. […] Significance (p=0.05) was determined by Student's t-test between TGF-β concentrations in cultures of activated α-MSH treated T cells and T cells activated in the absence of α-MSH. […]

α-melanocyte stimulating hormone (SYSMEHFRWGKPV; not fully specified; ends and bridges not checked; UniProt P01189 138-150, looked up) [α-MSH, synthetic α-MSH (Peninsula Laboratories); thirteen-amino acid neuropeptide derived from POMC]
TGF-β production by TCR-stimulated primed T cells (serum-free, transiently acidified supernatant): enhanced levels; also recorded: significantly enhanced | threshold of α-MSH concentration needed to induce TGF-β1 production (TCR-stimulated T cells): 30 pg/mL
